Measured values as given in patent publication US20260015376A1, “CONTINUOUS FLOW METHODS FOR PRODUCING MANNOSE-1-PHOSPHATE, POLYMORPHS OF MANNOSE-1-PHOSPHATE, AND COMPOSITIONS AND USES RELATED THERETO” (Glycomine, Inc., priority 2022, published 2026).
Entries after “also recorded” stand apart in the source; their conditions may differ.

Key:
Assay type in all cases: physicochemical
[1] = Water sorption by dynamic vapor sorption (DVS) at 25° C.
Experimental: Water sorption behavior of […] Form C was investigated using dynamic vapor sorption (DVS) at 25° C. The relative humidity (RH) was increased from 0-80%, with a minimum equilibration time of 60 min and a maximum equilibration time of 360 min.

[2] = Wet granulation simulation (XRPD); conditions: ethanol as the granulation solvent, dried 10 min at ambient conditions
Experimental: Ethanol was added dropwise to about 10 mg of M1P Form C until the sample was wetted sufficiently. The wet sample was ground gently in a mortar and a pestle. Post granulation, the sample was dried under ambient conditions for 10 min. Potential form change and degree of crystallinity were evaluated by XRPD.

[3] = 12-month stability, polymorph characterization by XRPD and purity by chromatography; conditions: −20° C., 25° C./60% RH, 40° C./75% RH, 5° C.
Experimental: […] Form C was produced in accordance with the examples above. XRPD was used on samples taken at 1, 3, 6, 9 and 12 months, and tested under four conditions: • -20° C.±5° C., • 25° C.±2° C. at 60% relative humidity (RH)±5% RH, • 40° C.±2° C. at 75% RH±5% RH and • 5° C.±3° C.

[4] = Dry grinding study (XRPD); conditions: ground manually with mortar and pestle for 3 min
Experimental: About 10 mg of […] Form C was ground manually with a mortar and a pestle for 3 min. Potential form change and degree of crystallinity were evaluated by XRPD.

[5] = Compression study (hydraulic press, XRPD)
Experimental: About 10 mg of […] Form C was compressed for 5 minutes under 5 MPa or 10 MPa with a hydraulic press. Potential form change and degree of crystallinity were evaluated by XRPD.

[6] = Water activity experiments to determine relative stability of Forms A, B and C in water/EtOH systems (XRPD)
Experimental: […]. Water activity experiments were conducted at 25° C. in several different water/EtOH systems to determine relative stability of M1P Forms A, B and C under these conditions.
About 5 mg each of M1P Forms A, B, and C were combined and added to 0.2 mL saturated solutions of a water/EtOH system. The resulting suspensions were stirred at 5° C., 25° C., or 50° C. for 4 days or 11 days. After 4 or 11 days, the solids (wet cakes) were isolated by centrifugation filtration and analyzed by XRPD to determine which Form(s) remained.

## O=P([O-])([O-])O[C@H]1O[C@H](CO)[C@@H](O)[C@H](O)[C@@H]1O.[K+].[K+] [Form C]
[1]; 80% RH at 25° C.
  form change by XRPD following the DVS experiment: no form change was observed
[1]; DVS, 25° C., 80% RH
  H2O absorbed: 1.9 % (w/w)
[1]; DVS, 25° C., RH 0-80%
  hygroscopicity: only slightly hygroscopic; also recorded: low hygroscopicity
[1]; DVS, 25° C., relative humidity 0%
  % Water absorption: 0.01%
[1]; DVS, 25° C., relative humidity 10%
  % Water absorption: 0.51%
[1]; DVS, 25° C., relative humidity 20%
  % Water absorption: 0.59%
[1]; DVS, 25° C., relative humidity 30%
  % Water absorption: 0.63%
[1]; DVS, 25° C., relative humidity 40%
  % Water absorption: 0.65%
[1]; DVS, 25° C., relative humidity 50%
  % Water absorption: 0.69%
[1]; DVS, 25° C., relative humidity 60%
  % Water absorption: 0.73%
[1]; DVS, 25° C., relative humidity 70%
  % Water absorption: 0.82%
[1]; DVS, 25° C., relative humidity 80%
  % Water absorption: 1.93%
[2]
  form change by XRPD: no form change
[3]; 1, 3, 6, 9 and 12 months
  changes to the polymorphic form by XRPD: no observed changes to the polymorphic form
[3]; 12-month stability
  changes in purity by chromatography: no substantial changes observed
[4]
  degree of crystallinity by XRPD: crystallinity decreased
  form change by XRPD: no form change
[5]; compressed for 5 minutes under 5 MPa
  form change by XRPD: no form change was observed
[5]; compressed for 5 minutes under 5 MPa and 10 MPa
  degree of crystallinity by XRPD: crystallinity decreased
[5]; compressed for 5 minutes under 10 MPa
  form change by XRPD: no form change was observed
[6]
  stability over water activity range: stable over a wide water activity range
